≈ marks a conversion by molar mass, not a printed value. Like-named read-outs stand apart in the source and are kept apart here. Ends that are not written are not given here.
Key:
[1] = system: RAW 264.7 cells; type: cell-based, murine; conditions: RAW264.7; ratio of IC50 to GM
Method: (§1) The MTT (3-[4,5 dimethylthiozol-2-yl]-2,5-diphenylterazoliumbromide) dye was selected to analyze the cytotoxicity of peptides against the murine macrophage cell RAW 264.7 (National Collection of Authenticated Cell Cultures, Shanghai, China), human embryonic kidneys (HK293T), and the porcine intestinal epithelial cells (IPEC-J2) as in our previously study ([Li et al., 2020]). In short, the cells (10^4 cells/well) were seeded into 96-well plates and were cultivated overnight. Then the peptides with different final concentration (2μM, 4μM, 8μM, 16μM, 32μM, 64μM, and 128μM) were introduced into the plate and challenged with cells for 24h. After overnight incubation, the 50μl MTT (0.5mg/ml) was added into the cell cultures for 4h. Then the plate was centrifuged to discard the supernatants and obtain the formazan crystals. The DMSO (dimethyl sulfoxide) was employed as a solvent to dissolve the formazan crystals on the bottom of the plate and the optical density was read at 492nm with a microplate reader.

[2] = system: IPEC-J2 cells; type: cell-based, porcine; conditions: for Therapeutic index (TI): IPEC-J2, ratio of IC50 to GM
Method: as §1

[3] = system: S.aureus 25923; type: cell-based, Staphylococcus aureus ATCC 25923
Excerpt: (§2) The tested strains were kindly provided by the laboratory of Veterinary Microbiology and Immunology, the College of Veterinary Medicine, Northeast Agricultural University (gram-negative bacteria, Salmonella enterica serovar typhimurium C77-31, Salmonella typhimurium ATCC 14028, Escherichia coli ATCC 25922, Pseudomonas aeruginosa ATCC 27853 and gram-positive bacteria, Staphylococcus aureus ATCC 29213, Staphylococcus aureus ATCC 43300, Staphylococcus epidermidis ATCC 12228, Staphylococcus aureus ATCC 25923).
(§3) The famous microtiter dilution, National Committee for Clinical Laboratory Standards, was adopted to measure the antimicrobial ability of the engineering peptides ([Chou et al., 2016]). In brief, the 50μl with serial dilution was incubated with the same volume bacteria (1×10^5CFU/ml in midi-logarithmic phase) in a 96-well plate 18–24h at 37°C. The positive control was the bacteria treated with culture medium and the negative control was merely culture medium. The MICs (minimum inhibitory concentrations) were defined as the lowest concentration of peptides that prevented the production of visible turbidity ([Tossi et al., 2000]).

[4] = system: E. coli 25922; type: cell-based, Escherichia coli ATCC 25922
Excerpt: as §2

[5] = system: S.epidermidis 12228; type: cell-based, Staphylococcus epidermidis ATCC 12228
Excerpt: as §2

[6] = system: hRBC, IPEC-J2, HEK 293T, RAW264.7
Method: Besides, the therapeutic index of peptide in the mammalian eukaryotic cell (RAW 264.7, HEK 293T, and IPEC J2) was also calculated to study the biocompatibility of peptides.

[7] = system: S.typhimurium 7731; type: cell-based, Salmonella enterica serovar typhimurium C77-31
Excerpt: as §2

[8] = system: MRSA 43300; type: cell-based, Staphylococcus aureus ATCC 43300; conditions: microtiter dilution, 1×10^5CFU/ml, 18–24h at 37°C, visible turbidity
Excerpt: as §2, §3

[9] = system: S.typhimurium 14028; type: cell-based, Salmonella typhimurium ATCC 14028
Excerpt: as §2

[10] = system: S.aureus 29213; type: cell-based, Staphylococcus aureus ATCC 29213
Excerpt: as §2, §3

[11] = system: P.aeruginosa 27853; type: cell-based, Pseudomonas aeruginosa ATCC 27853
Excerpt: as §2, §3

[12] = system: panel of gram-negative and gram-positive bacteria; conditions: over the eight strains of Table 2
Method: as §3

[13] = system: human red blood cells (hRBCs); assay: Hemolytic activity; type: cell-based; conditions: for HC5 (MHC), lowest concentration that caused 5% hemolysis: hRBC in PBS pH 7.2, 1h at 37°C, absorbance 570nm, vs 0.1% Triton X-100, highest test concentration 128μM; for Therapeutic index (TI): hRBC, ratio of MHC to GM
Excerpt: The hemolytic activity of peptides was reflected by the releasing amount of hemoglobin from erythrocytes lysis induced by peptides ([Dong et al., 2014a]). The informed consent was obtained from the volunteers (3 healthy 25-year-old male volunteers) before the experiment. In brief, the human red blood cells (hRBCs), donated by volunteer, were collected, washed, and resuspended in PBS at pH 7.2. The peptides were serially diluted in PBS at different concentrations in a 96-well cell cultures plate and incubated with 50μl hRBCs for 1h at 37°C. The 0.1% Trition X-100 was selected as the treatment of positive control and the negative control was the hRBCs treated with PBS. After 1h incubation, the supernatant, obtained by centrifuging the plate 1,000g for 5min, was transferred to a brand-new plate for absorbance detection at 570nm. The releasing amount of hemoglobin was converted to the percent hemolysis against to 0.1% Triton X-100 treatment. The lowest concentration caused 5% hemolysis of hRBCs and was defined as the lowest hemolytic concentration of antimicrobial peptide.

[14] = system: HEK 293T cells; type: cell-based, human; conditions: ratio of IC50 to GM
Method: as §1

[15] = system: Pseudomonas aeruginosa ATCC 27853; assay: Subcutaneous abscess model; conditions: 5mg/kg
[16] = microtiter dilution, 1×10^5CFU/ml, 18–24h at 37°C, visible turbidity

Compound | Therapeutic index (TI) [1] | Therapeutic index (TI) [2] | MIC [3]; 25923 [µM] | MIC [4] [µM] | MIC [5] [µM] | GMTI, geometric mean of TI of various cell lines [6] | MIC [7] [µM] | MIC [8] [µM] | MIC [9] [µM] | MIC [10]; 29213 [µM] | MIC [11]; 27853 [µM] | GMMIC, geometric mean of the MICs [12] [µM] | HC5 (MHC), lowest concentration that caused 5% hemolysis [13] [µM] | Therapeutic index (TI) [13] | Therapeutic index (TI) [14] | further results
VKKWVKKWVKKWVKKA-NH2 [VW4] | 1855.65 | 1855.95 | 4 | 4 | 4 | >775.15 | 2 | 4 | 4 | 4 | 2 | 3.36 | >128 | > 38.1 | 2751.71 | 
O=C(O)c1cn(C2CC2)c2cc(N3CCNCC3)c(F)cc2c1=O [ciprofloxacin, reference compound] |  |  |  |  |  |  |  |  |  |  |  |  |  |  |  | IL-1β in serum ([15]; Day 3, ELISA, saline 95.99±4.31): 72.18 ± 3.54 pg/mL; IL-1α in serum ([15]; Day 3, ELISA, saline 99.95±4.71): 80.08 ± 4.04 pg/mL; TNF-α in serum ([15]; Day 3, ELISA, saline 1020.654±51.08): 773.35 ± 40.55 pg/mL; IL-2 in serum ([15]; Day 3, ELISA, saline 1492.65±48.11): 1250.826 ± 43.60 pg/mL; histological examination of abscess lesion, dermal tissue structures ([15]; HE staining, Day 3): relative integrity
VKKLVKKLVKKAVKKL-NH2 [VL4] |  |  | 16 | 16 | 32 | >104.47 | 16 |  | 32 | 16 | 8 |  |  |  |  | 
VKKLVKKLVKKLVKKA-NH2 [VL3] |  |  | 32 | 16 | 32 | >122.44 | 32 |  | 32 | 16 | 8 |  |  |  |  | 
VKKLVKKLVKKAVKKA-NH2 [VL2] | 64.03 | 87.76 | >64 | >64 | >64 | >25.74 | >64 | >64 | >64 | >64 | 64 | 117.38 | >128 | >1.09 | 71.65 | 
VKKWVKKAVKKWVKKA-NH2 [VW1] | 87.91 | 120.77 | >64 | 64 | 64 | >35.28 | >64 | >64 | 64 | 64 | 32 | 76.11 | >128 | > 1.68 | 86.82 | 
CC[C@H](C)[C@H](NC(=O)CN)C(=O)NCC(=O)N[C@@H](C)C(=O)N[C@H](C(=O)N[C@@H](CC(C)C)C(=O)N[C@@H](CCCCN)C(=O)N[C@H](C(=O)N[C@@H](CC(C)C)C(=O)N[C@H](C(=O)N[C@H](C(=O)NCC(=O)N[C@@H](CC(C)C)C(=O)N1CCC[C@H]1C(=O)N[C@@H](C)C(=O)N[C@@H](CC(C)C)C(=O)N[C@H](C(=O)N[C@@H](CO)C(=O)N[C@@H](Cc1c[nH]c2ccccc12)C(=O)N[C@H](C(=O)N[C@@H](CCCCN)C(=O)N[C@@H](CCCNC(=N)N)C(=O)N[C@@H](CCCCN)C(=O)N[C@@H](CCCNC(=N)N)C(=O)N[C@@H](CCC(N)=O)C(=O)N[C@@H](CCC(N)=O)C(N)=O)[C@@H](C)CC)[C@@H](C)CC)[C@@H](C)O)[C@@H](C)O)C(C)C)C(C)C [Melittin, reference compound] |  |  |  |  |  |  |  | 4 (≈ 11.4 µg/mL) |  |  |  | 1.68 |  |  |  | cell viability ([2]; IPEC J2, MTT, 24h, 32μM): below 5%; IC50 ([2]; IPEC-J2, MTT, 24h, tested 2–128μM): 3.34 µM; MIC [3, 16]: 2 µM (≈ 5.69 µg/mL); GMTI, geometric mean of TI of various cell lines ([6]; hRBC, IPEC-J2, HEK 293T, RAW264.7): 1.71; MIC [10, 16]: 4 µM (≈ 11.4 µg/mL); MIC [11, 16]: 2 µM (≈ 5.69 µg/mL)
VKKWVKKWVKKAVKKA-NH2 [VW2] | 136.50 | 136.45 | 64 | 8 | 64 | >53.63 | 64 | 64 | 64 | 64 | 8 | 41.50 | >128 | > 3.08 | 144.05 | 
VKKWVKKWVKKAVKKW-NH2 [VW3] | 647.10 | 646.97 | 8 | 4 | 8 | >320.73 | 8 | 8 | 8 | 16 | 4 | 7.34 | >128 | > 17.44 | 1449.42 | 
VKKLVKKLVKKLVKKL-NH2 [VL5] | 404.20 | 957.83 | 8 | 8 | 4 | >357.80 | 2 | 8 | 4 | 8 | 2 | 4.76 | >128 | > 26.89 | 1574.26 | TI (hRBC) fold smaller than VW5 [13]: about 2.8 fold
